Earlier results in patent US6543389B2, “Insecticidal pet collar” (Pfizer Inc., priority 2001, dated 2003).

What was measured:
ticks [1] = settings: collars as currently marketed, extruded matrix containing about 9% by weight of amitraz
ticks [2] = settings: as compared with fipronil
alpha-2 adrenoceptor = settings: affected dogs, injected intramuscularly

SMILES | duration of tick protection (ticks [1]) | effect on numbers of live feeding ticks, egg hatchability, and larval viability (ticks [2]) | reversing effects of amitraz toxicosis (alpha-2 adrenoceptor)
Cc1ccc(N=CN(C)C=Nc2ccc(C)cc2C)c(C)c1 [Amitraz, 1,5-di-(2,4-dimethylphenyl)-3-methyl-1,3,5-triazapenta-1,4-diene] | about four | significantly greater effect | 
CCC1(c2c[nH]cn2)Cc2ccccc2C1 [atipamezole, 4-(2-ethyl-2,3-dihydro-1H-inden-2-yl)-1H-imidazole] |  |  | effective in reversing effects of amitraz toxicosis
